For data set [1], the system named is A549 lung adenocarcinoma cells. Nature of the data set: A549 bromodeoxyuridine (BrdU) cytoblot antiproliferative assay of compound dilution matrix. The data set is classed as cell-based. On the procedure:
An 8× stock solution (128 μM) of each individual compound was made in Dulbecco's Modified Eagle Medium (DMEM) (Gibco 11995-040) containing 10% fetal bovine serum (FBS), […] L-glutamine, and 1% antibiotic/antimycotic solution. From this a 2-fold dilution series was made in DMEM. […] This compound mixture plate provided 4× concentrations of each compound that are transferred to assay plates.
The compound dilution matrix was assayed using the A549 bromodeoxyuri dine (BrdU) cytoblot method. […] Fifteen microliters of the 4× compound mixture matrix was added to each well of the plate containing the cells. The compound mixture matrix was transferred using a 16-channel pipettor (Finnpipette). In addition, control wells with paclitaxel (final concentration 4.6 μM), podophyllotoxin (9.6 μM), and quinacrine (8.5 μM) were added to each plate. Each experiment was conducted in triplicate plates.
After incubation for 48 hours at 37° C., BrdU was added to each well at a concentration of 10 μM. After 16 hours, the media was aspirated and the cells were fixed by the addition of 70% ethanol and phosphate-buffered saline (PBS) at room temperature for 1 hour. The fixative was aspirated and 2N HCl with Tween 20 (polyoxyethylene sorbitan monolaurate) was added to each well and the plates were incubated for 20 minutes at room temperature. The HCl was neutralized with a solution of 2N NaOH and the cells were washed twice with Hank's Balanced Salt Solution (HBSS) and once with PBS containing 0.5% bovine serum albumin (BSA) and 0.1% Tween 20. The wash solution was removed and mouse anti-BrdU primary antibody (PharMingen #555627) was diluted 1:1000 in PBS containing BSA, Tween 20, and secondary antibody at a dilution of 1:2000 (Amersham #NA931). The secondary antibody recognizes the mouse antibody and is conjugated to the enzyme horseradish peroxidase (HRP). After one hour of incubation, the antibody solution was removed and the cells washed once with PBS. After the PBS wash, the HRP substrate (which contains luminol, hydrogen peroxide, and an enhancer such as para-iodophenol) was added to each well. The plates were read using an LJL Analyst. All aspirations as well as the washes with PBS and HBSS were performed using a TECAN™ Power Washer 384. The amount of light output from each well indicates the amount of DNA synthesis that occurred in that well. Decreased light indicates antiproliferative action of the compounds.
Antiproliferative ratios were also calculated for paclitaxel, podophyllotoxin, and quinacrine and used for comparison.
The assays were performed as described in Example 2, above.

For data set [2] the following is noted: cited from earlier work.
Data set [3] has as its system nocodozole-resistant NocR and Podrii6 cell lines. The following applies: Gupta, Mol. Pharmacol. 30:142-148, 1986; cited from earlier work.
The conditions of data set [4]: mice, single intraperitoneal injection 10 mg/kg; cited from earlier work.
Setting [5] is: Homo sapiens, A549, read-out: inhibition of growth.

For the compound `CCC[S+]([O-])c1ccc2[nH]c(NC(=O)OC)nc2c1` (stereo not shown) [Albendazole Sulfoxide, albendazole sulfoxide], the antiproliferative ratio in data set [1] (albendazole sulfoxide 0.5 μM + pentamidine isethionate 0 μM) came to 1.2; in data set [1] (albendazole sulfoxide 1 μM + pentamidine isethionate 0 μM) it was 1.1; in data set [1] (albendazole sulfoxide 2 μM + pentamidine isethionate 0 μM), 1.2; in data set [1] (albendazole sulfoxide 4 μM + pentamidine isethionate 0 μM) it was 1.4; in data set [1] (albendazole sulfoxide 8 μM + pentamidine isethionate 0 μM), 1.4.

Usually inhibition of growth stands for the percentage by which the read-out fell short of the control. Low readings indicate little suppression, high ones strong suppression. With `CCCSc1ccc2[nH]c(NC(=O)OC)nc2c1` [Albendazole, albendazole], the antiproliferative ratio in data set [1] (albendazole 0.03 μM + pentamidine isethionate 0 μM) was 1.3; in data set [1] (albendazole 0.06 μM + pentamidine isethionate 0 μM) it was 0.9; in data set [1] (albendazole 0.13 μM + pentamidine isethionate 0 μM), 1.2; in data set [1] (albendazole 0.25 μM + pentamidine isethionate 0 μM) it was 1.3; in data set [1] (albendazole 0.5 μM + pentamidine isethionate 0 μM), 1.2; in data set [1] (albendazole 1 μM + pentamidine isethionate 0 μM), 1.4. Moreover, the antiproliferative ratio is reported as 2.5 in data set [1] (albendazole 2 μM + pentamidine isethionate 0 μM); 2.4 in data set [1] (albendazole 4 μM + pentamidine isethionate 0 μM); “increased no further” in data set [1] (albendazole 4 μM + pentamidine isethionate 0 μM, listed as albendazole); 3.1 in data set [1] (albendazole 8 μM + pentamidine isethionate 0 μM). Also, the inhibition of growth in data set [1] (albendazole alone, two micromolar) amounted to 60%.

Take `COC(=O)Nc1nc2ccc(C(=O)c3ccccc3)cc2[nH]1` [Mebendazole, mebendazole]: the antiproliferative ratio was 1.0 in data set [1] (mebendazole 0.015 μM + pentamidine isethionate 0 μM); 1.4 in data set [1] (mebendazole 0.03 μM + pentamidine isethionate 0 μM); 1.0 in data set [1] (mebendazole 0.06 μM + pentamidine isethionate 0 μM); 1.5 in data set [1] (mebendazole 0.13 μM + pentamidine isethionate 0 μM); 1.5 in data set [1] (mebendazole 0.25 μM + pentamidine isethionate 0 μM); 2.8 in data set [1] (mebendazole 0.5 μM + pentamidine isethionate 0 μM). Further, the antiproliferative ratio in data set [1] (mebendazole 1 μM + pentamidine isethionate 0 μM) is listed as 3.4; in data set [1] (mebendazole 2 μM + pentamidine isethionate 0 μM), 5.0; in data set [1] (mebendazole 4 μM + pentamidine isethionate 0 μM) it was 4.4.

Turning to `CCCOc1ccc2nc(NC(=O)OC)[nH]c2c1` [Oxibendazole, oxibendazole], the antiproliferative ratio in data set [1] (oxibendazole 0.015 μM + pentamidine isethionate 0 μM) came out at 1.0; in data set [1] (oxibendazole 0.03 μM + pentamidine isethionate 0 μM), 1.1; in data set [1] (oxibendazole 0.06 μM + pentamidine isethionate 0 μM) it was 1.0; in data set [1] (oxibendazole 0.13 μM + pentamidine isethionate 0 μM), 1.1; in data set [1] (oxibendazole 0.25 μM + pentamidine isethionate 0 μM), 1.0; in data set [1] (oxibendazole 0.5 μM + pentamidine isethionate 0 μM) it was 1.6. For the same compound, the antiproliferative ratio was 2.9 in data set [1] (oxibendazole 1 μM + pentamidine isethionate 0 μM), 3.2 in data set [1] (oxibendazole 2 μM + pentamidine isethionate 0 μM) and 3.6 in data set [1] (oxibendazole 4 μM + pentamidine isethionate 0 μM).

The inhibition is the change of the read-out against control, counted positive when it falls. As for `N=C(N)c1ccc(OCCCCCOc2ccc(C(=N)N)cc2)cc1` [Pentamidine Isethionate, 4,4′-diamidino-diphenoxypentane di(β-hydroxyethanesulfonate)], in data set [2], the “solubility in ether, acetone, and chloroform” value is reported as “insoluble”; the “solubility in water and glycerin” value is given as “soluble”. For the same compound, in data set [1] (setting [5]), the inhibition at 2 µM is 47% and the inhibition at 4 µM came to 55%.

In the case of `c1ccc2[nH]c(-c3cscn3)nc2c1` [Thiabendazole, thiabendazole], in data set [3], the “cross-resistance of nocodozole-resistant cell lines” value is given as “lack of cross-resistance”. For the same compound, the antiproliferative ratio in data set [1] (thiabendazole 0.25 μM + pentamidine isethionate 0 μM), in data set [1] (thiabendazole 0.5 μM + pentamidine isethionate 0 μM), in data set [1] (thiabendazole 1 μM + pentamidine isethionate 0 μM), in data set [1] (thiabendazole 2 μM + pentamidine isethionate 0 μM) and in data set [1] (thiabendazole 4 μM + pentamidine isethionate 0 μM) was 1.2 in each case.

Regarding `CC(=O)O[C@H]1C(=O)[C@@]2(C)[C@H]([C@H](OC(=O)c3ccccc3)[C@]3(O)C[C@H](OC(=O)[C@H](O)[C@@H](NC(=O)c4ccccc4)c4ccccc4)C(C)=C1C3(C)C)[C@]1(OC(C)=O)CO[C@@H]1C[C@@H]2O` [paclitaxel], the antiproliferative ratio in data set [1] (control wells, paclitaxel final concentration 4.6 μM) is given as 4.0.

Turning to `N=C(N)c1ccc(OCCCCCOc2ccc(C(=N)N)cc2)cc1` [pentamidine], the “tissue distribution (concentration ranking)” value in data set [4] is “The concentration in the kidneys was the highest, followed by that in the liver”.

Source of the values: US6693125B2 (CombinatoRx Incorporated, priority 2001, dated 2004).
